Assay results taken from patent US20090082395A1, “SOLUBLE EPOXIDE HYDROLASE INHIBITORS” (Arete Therapeutics, Inc., priority 2007, published 2009).

Tests used:
[1] = tested on: soluble epoxide hydrolase (sEH); experiment: Fluorescent assay for mouse and human soluble epoxide hydrolase (CMNPC substrate); format: biochemical; settings: recombinant sEH, species (mouse or human) not given
Description: Fluorescent Assay for Mouse and Human Soluble Epoxide Hydrolase
Recombinant mouse sEH (MsEH) and human sEH (HsEH) were produced in a baculovirus expression system as previously reported. Grant et al., J. Biol. Chem., 268:17628-17633 (1993); Beetham et al., Arch. Biochem. Biophys., 305:197-201 (1993). The expressed proteins were purified from cell lysate by affinity chromatography. Wixtrom et al., Anal. Biochem., 169:71-80 (1988). Protein concentration was quantified using the Pierce BCA assay using bovine serum albumin as the calibrating standard. The preparations were at least 97% pure as judged by SDS-PAGE and scanning densitometry. They contained no detectable esterase or glutathione transferase activity which can interfere with the assay. The assay was also evaluated with similar results in crude cell lysates or homogenate of tissues.
The IC50s for each inhibitor were according to the following procedure:
Cyano(2-methoxynaphthalen-6-yl)methyl (3-phenyloxiran-2-yl)methyl carbonate (CMNPC; Jones P. D. et. al.; Analytical Biochemistry 2005; 343: pp. 66-75)
Bis/Tris HCl 25 mM pH 7.0 containing 0.1 mg/mL of BSA (buffer A)
CMNPC at 0.25 mM in DMSO.
Mother solution of enzyme in buffer A (Mouse sEH at 6 μg/mL and Human sEH at 5 μg/mL). Inhibitor dissolved in DMSO at the appropriate concentration.
In a black 96 well plate, fill all the wells with 150 μL of buffer A. Add 2 μL of DMSO in well A2 and A3, and then add 2 μL of inhibitor solution in A1 and A4 through A12. Add 150 μL of buffer A in row A, then mix several time and transfer 150 μL to row B. Repeat this operation up to row H. The 150 μL removed from row H go to the trash. Add 20 μL of buffer A in column 1 and 2, then add 20 μL of enzyme solution to column 3 to 12. Incubate the plate for 5 minutes in the plate reader at 30° C. During incubation prepare the working solution of substrate by mixing 3.68 mL of buffer A (4×0.920 mL) with 266 μL (2×133 μL) of substrate solution). At t=0, add 30 μL of working substrate solution with multi-channel pipette labeled “Briggs 303” and start the reading ([S]final: 5 μM). Read with ex: 330 nm (20 nm) and em: 465 nm (20 nm) every 30 second for 10 minutes. The velocities are used to analyze and calculate the IC50s.

Row | % Inh ([1]; compound concentration 500 nM) [%] | melting point [°C] | % Inh ([1]; compound concentration 50 nM) [%] | % Inh ([1]; compound concentration 2000 nM) [%] | Compound
1 | 85 | 213 to 215 | – | – | O=C(Nc1cccc(C(F)(F)F)c1)Nc1ccc2nc(C(F)(F)F)[nH]c2c1 [Compound 16, 1-(2-(trifluoromethyl)-1H-benzo[d]imidazol-5-yl)-3-(3-(trifluoromethyl)phenyl)urea]
2 | – | 223 to 228 | 80 | – | O=C(Nc1ccc(C(F)(F)F)cc1)Nc1ccc2[nH]c(C(F)(F)F)nc2c1 [Compound 14, 1-(2-(trifluoromethyl)-1H-benzo[d]imidazol-5-yl)-3-(4-(trifluoromethyl)phenyl)urea]
3 | – | – | – | 98 | O=C(Nc1ccc2c(c1)OCCO2)NC12CC3CC(CC(C3)C1)C2 [Compound 2, 1-adamantan-1-yl-3-(2,3-dihydrobenzo[b][1,4]dioxin-6-yl)urea]
4 | – | 257 to 260 | 89 | – | Cc1cc2cc(NC(=O)Nc3ccc(Cl)cc3)ccc2[nH]1 [Compound 6, 1-(4-chlorophenyl)-3-(2-methyl-1H-indol-5-yl)urea]
5 | – | 195 to 200 | 91 | – | O=C(Nc1ccc(C(F)(F)F)cc1)Nc1ccc2c(c1)OC(F)(F)O2 [Compound 3, 1-(2,2-difluorobenzol[d][1,3]dioxol-5-yl)-3-(4-(trifluoromethyl)phenyl)urea]
6 | 89 | – | – | – | O=C(Nc1cccc(C(F)(F)F)c1)Nc1ccc2c(c1)OC(F)(F)O2 [Compound 5, 1-(2,2-difluorobenzo[d][1,3]dioxol-5-yl)-3-(3-(trifluoromethyl)phenyl)urea]
7 | – | 213 to 215 | 99 | – | O=C(Nc1ccc2c(c1)OC(F)(F)O2)NC12CC3CC(CC(C3)C1)C2 [Compound 10, 1-adamantan-1-yl-3-(2,2-difluorobenzo[d][1,3]dioxol-5-yl)urea]
8 | – | 209 to 214 | 92 | – | Cc1nc2cc(NC(=O)NC34CC5CC(CC(C5)C3)C4)ccc2s1 [Compound 13, 1-adamantan-1-yl-3-(2-methylbenzo[d]thiazol-5-yl)urea]
9 | – | 240 to 243 | 98 | – | Cc1nc2cc(NC(=O)Nc3ccc(C(F)(F)F)cc3)ccc2o1 [Compound 11, 1-(2-methylbenzo[d]oxazol-5-yl)-3-(4-(trifluoromethyl)phenyl)urea]
10 | – | 259 to 263 | – | 98 | O=C(Nc1ccc(C(F)(F)F)cc1)Nc1ccc2ncccc2c1 [Compound 1, 1-(quinolin-6-yl)-3-(4-(trifluoromethyl)phenyl)urea]
11 | – | – | 87 | – | O=C(Nc1ccc(C(F)(F)F)cc1)Nc1ccc2c(c1)COC2=O [Compound 18, 1-(1-oxo-1,3-dihydroisobenzofuran-5-yl)-3-(4-(trifluoromethyl)phenyl)urea]
12 | – | 231 to 233 | 95 | – | O=C(Nc1ccc(Cl)cc1)Nc1ccc2c(c1)OC(F)(F)O2 [Compound 7, 1-(4-chlorophenyl)-3-(2,2-difluorobenzo[d][1,3]dioxol-5-yl)urea]
13 | 93 | 189 to 192 | – | – | O=C(Nc1ccc2[nH]c(C(F)(F)F)nc2c1)NC12CC3CC(CC(C3)C1)C2 [Compound 15, 1-adamantan-1-yl-3-(2-(trifluoromethyl)-1H-benzo[d]imidazol-5-yl)urea]
14 | – | 252 to 254 | 92 | – | Cn1ncc2cc(NC(=O)Nc3ccc(C(F)(F)F)cc3)ccc21 [Compound 8, 1-(1-methyl-1H-indazol-5-yl)-3-(4-(trifluoromethyl)phenyl)urea]
15 | 91 | 264 to 268 | – | – | O=C(Nc1ccc(Cl)cc1)Nc1ccc2[nH]c(C(F)(F)F)nc2c1 [Compound 4, 1-(4-chlorophenyl)-3-(2-(trifluoromethyl)-1H-benzo[d]imidazol-5-yl)urea]
16 | 93 | 184 to 186 | – | – | Cc1nc2cc(NC(=O)Nc3cccc(C(F)(F)F)c3)ccc2o1 [Compound 12, 1-(2-methylbenzo[d]oxazol-5-yl)-3-(3-(trifluoromethyl)phenyl)urea]
17 | – | 279 to 282 | 86 | – | O=C(Nc1cccc(C(F)(F)F)c1)Nc1ccc2c(c1)COC2=O [Compound 17, 1-(1-oxo-1,3-dihydroisobenzofuran-5-yl)-3-(3-(trifluoromethyl)phenyl)urea]
18 | – | 146 to 152 | 85 | – | Cc1cc2cc(NC(=O)NC34CC5CC(CC(C5)C3)C4)ccc2[nH]1 [Compound 9, 1-adamantan-1-yl-3-(2-methyl-1H-indol-5-yl)urea]
